# Laboratory results: PMC11989212, “Experimental Conditions to Retrieve Intrinsic Cooperativity α Directly from Single Binding Assay Data Exemplified by the Ternary Complex Formation of FKBP12, MAPRE1 and Macrocyclic Molecular Glues” (International Journal of Molecular Sciences, 2025)
# Several values for one entry are separate records, joined by “and”; a condition that tells them apart may be missing. Identical values can stand only once. Like-named read-outs stand apart in the source and are kept apart here.
# Experiments:
# [1] = target: T1, MAPRE1 in the presence of FKBP12 (Homo sapiens, UniProt P62942+Q15691); assay: Spectral shift target engagement assay, binding to MAPRE1 in the presence of 10 μM FKBP12 (ternary); conditions: for EC50: 5 nM MAPRE1-NHS, 10 μM FKBP12, read-out: EC50 of the %Tbound, ternary curve; for Ratio [Ctot]/KC,1: [Ctot] = 10 μM FKBP12; for 100 × (EC50 %Tbound ternary − 0.5 [Ttot] − KT,2)/KT,2: difference between EC50 of the %Tbound, ternary curve and KT,2; for 100 × (EC50 %Tbound ternary − 0.5 [Ttot] − KT,2)/KT,2 / Intrinsic cooperativity α: [Ttot] = 5 nM; for Intrinsic cooperativity α: from KC,1, KT,1 and EC50 of the %Tbound, ternary curve with the mathematical model, [Ctot] = 10,000 nM; for Kd: ternary Kd, model-based ([CL] at [Ltot] = EC50), read-out: KT,2
# T1 construct: His-tag (N)
# T1 sequence (P62942 whole entry, one chain of several): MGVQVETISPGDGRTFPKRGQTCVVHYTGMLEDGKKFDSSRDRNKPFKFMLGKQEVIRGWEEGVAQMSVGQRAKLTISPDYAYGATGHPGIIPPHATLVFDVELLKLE
# Description: (§1) Our method of choice is the spectral shift method, which monitors binding events on the target isothermally and in equilibrium via an environment-sensitive near-infrared fluorophore. In the case of target engagement, either the proximity of the ligand towards the dye or structural changes occurring in the target as a result of binding lead to a change in the chemical environment of the fluorophore. Those changes affect the physiochemical properties of the reporter fluorophore and translate into either blue or red shifts (or peak broadening) of emission peaks upon ligand binding, which can be sensitively monitored by simultaneously recording the fluorescence at two wavelengths (i.e., at 650 nm and 670 nm). Calculating the ratio between the two fluorescence channels then allows to monitor subtle emission shifts that occur as a result of target engagement. Affinity measurements can then be performed by recording the spectral shift as a function of ligand concentration.
# (§2) Binding study through MAPRE1: MAPRE1 was labeled via lysines using an NHS-conjugated dye. The final concentration of MAPRE1NHS (referring to [Ttot]) was 5 nM. Compounds could be titrated up to a concentration of 200 μM (referring to [Ltot]). […] However more accuracy could only be achieved at higher ligand concentrations—ideally at full target saturation. However, this was experimentally infeasible due to assay conditions (i.e., the requirement of maintaining a certain DMSO concentration or avoiding solubility issues of the ligand). Although the determined KT,1 values of binding to MAPRE1 are only approximations, their relative ranking reflects the underlying differences in the affinity of the ligands L to MAPRE1. Performing these experiments in duplicates confirmed the high signal-to-noise ratio, i.e., there was no significant deviation between the two curves, indicating a high accuracy of the interpolated EC50 values. Due to the low [Ttot] = 5 nM, this value coincides with KT,1 (1.8 mM − 0.005 mM/2 ≈ 1.8 mM). […] Consequently, KT,2 corresponds to 173 nM and not 177.5 nM.
# (§3) His-tagged FKBP12 was labeled using the His-Tag Labeling Kit RED-tris-NTA 2nd Generation (MO-L018; NanoTemper Technologies GmbH). The affinity between NTA dye and the His-tag of FKBP12 was determined as 7 nM. MAPRE1 was labeled using the Protein Labeling Kit RED-NHS 2nd Generation (MO-L011; NanoTemper Technologies GmbH). In brief, 10 µM of MAPRE1 was incubated with a 3-fold molar excess of fluorophore for 30 min. The unreacted fluorophore was removed by performing a size exclusion purification (B-column). Collecting the protein fraction yielded 1.8 µM labeled MAPRE1, with a degree of labeling of 0.8, as determined on a Nanodrop.
# (§4) A 1:2 dilution series of all compounds (starting from the 10 mM stock concentration) was prepared in pure DMSO. Each concentration was diluted 25-fold with assay buffer (20 mM HEPES, pH 7.4, 150 mM NaCl, 1 mM DTT (all from Carl Roth, Karlsruhe, Germany), and 0.01% Pluronic F-127 (Sigma Aldrich, Taufkirchen, Germany)). Next, 10 µL from each of the prepared ligand dilutions was transferred into an empty well on a Dianthus Microwell Plate (DI-P001A). Another 10 µL of 2-fold concentrated labeled protein (either in the absence or the presence of 20 µM counter protein, both in assay buffer then yielded the final assay concentrations. Interaction measurements were prepared in duplicates for each condition. For binary interactions of compounds with MAPRE1, a final target concentration of 5 nM and a highest ligand concentration of 50 µM was prepared. For ternary interactions of compounds and MAPRE1 in the presence of 10 µM unlabeled FKBP12, the highest ligand concentration was increased to 200 µM, the highest concentration achievable while maintaining a constant 2% DMSO concentration. For all interactions measured via FKBP12, the target was prepared at a final concentration of 40 nM, supplemented with 5 nM NTA fluorophore. […]
# [2] = system: FKBP12:R,S-SLF-X:MAPRE1 ternary complex; design: method as in PMID 40059881; conditions: TR-FRET proximity assay, reported earlier; cited from earlier work
# [3] = target: FKBP12 in the presence of MAPRE1 (Homo sapiens, UniProt P62942+Q15691); assay: Spectral shift target engagement assay, binding to FKBP12 in the presence of 10 μM MAPRE1 (ternary)
# Sequence of FKBP12 in the presence of MAPRE1 (P62942 whole entry, one chain of several): as above
# Description: as §1
# (§5) Binding studies through FKBP12: To monitor the binding of R,--SLF-11 by the stronger binding FKBP12 in the absence and in the presence of 10 μM MAPRE1 via %Cbound, binary and %Cbound, ternary, respectively, the concentration of reversibly NTA-labeled FKBP12 was limited to [Ctot] = 40 nM. […] In contrast to the experimental setup in the previous two binding experiments with monitoring through the weaker binding protein MAPRE1, where the applied protein concentrations were optimally chosen, this is not the case for the binding experiment through the stronger binder FKBP12. First of all, the applied excess of T with [Ttot] = 10 μM is roughly 20000-fold off of the proposed 100 times KT,1 threshold, which would correspond to 180 mM. Only under such excess conditions of T can the equilibrium of forming TL under the constraint that all ligand L is bound to T be reached to ensure that [Ltot] approaches the “ligand” concentration [TL]. […] If KC,2 is sufficiently high, the 20 nM deviation to correct for the protein concentration could be neglected. However, the resulting calculated value for KC,2 is 0.023 nM, accounting for the cooperativity α = 10,405 and KC,1 = 234 nM as derived by the MAPRE1 experiment. This value is far below the applied protein concentration of [Ctot] = 40 nM and makes it infeasible to estimate KC,2 from the EC50 of the %Cbound, ternary curve. Consequently, the EC50 shifts, meaning the apparent cooperativity, from monitoring the binding by the stronger binding protein C are diverging from the underlying intrinsic cooperativity α. […] The deviation of calculated (254 nM/24.2 nM = 10.5) and measured apparent cooperativity (254 nM/66 nM = 3.8) can be explained by a negative cooperativity induced by the His6-NTA tag of FKBP12. Studies to lower [Ctot] and identify a better position for the spectral shift tag on FKBP12 are ongoing (Figure 6a).
# as §3
# (§6) A 1:2 dilution series of all compounds (starting from the 10 mM stock concentration) was prepared in pure DMSO. Each concentration was diluted 25-fold with assay buffer (20 mM HEPES, pH 7.4, 150 mM NaCl, 1 mM DTT (all from Carl Roth, Karlsruhe, Germany), and 0.01% Pluronic F-127 (Sigma Aldrich, Taufkirchen, Germany)). Next, 10 µL from each of the prepared ligand dilutions was transferred into an empty well on a Dianthus Microwell Plate (DI-P001A). […]
# FKBP12 [4] = target: T2, FKBP12 (Homo sapiens, UniProt P62942); assay: Spectral shift target engagement assay, binary binding to FKBP12; conditions: 40 nM FKBP12-NTA; for EC50: no MAPRE1, read-out: EC50 of the %Cbound, binary curve; for Kd: KC,1 = EC50 − [Ctot]/2
# T2 sequence (P62942 whole entry, species assumed): as the sequence (P62942 whole entry, one chain of several) above
# Description: as §1, §5, §3, §6
# FKBP12 [5] = target: T2, FKBP12; design: method as in PMID 40059881; conditions: TR-FRET competitive binding assay from previous work, read-out: EC50_FKBP12, cited from earlier work
# MAPRE1 [6] = target: T3, MAPRE1 (Homo sapiens, UniProt Q15691); design: method as in PMID 40059881; conditions: previous NMR studies; read-out: affinity for MAPRE1; cited from earlier work
# T3 construct: His-tag (N)
# T3 sequence (Q15691 1-268): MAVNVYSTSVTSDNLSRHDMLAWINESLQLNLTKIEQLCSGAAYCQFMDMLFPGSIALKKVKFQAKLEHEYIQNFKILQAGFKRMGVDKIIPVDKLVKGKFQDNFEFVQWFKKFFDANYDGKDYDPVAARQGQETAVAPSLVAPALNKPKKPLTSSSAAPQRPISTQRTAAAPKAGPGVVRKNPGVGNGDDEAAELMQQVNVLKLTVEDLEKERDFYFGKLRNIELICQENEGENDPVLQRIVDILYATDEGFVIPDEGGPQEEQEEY
# MAPRE1 [7] = target: T3, MAPRE1; assay: Spectral shift target engagement assay, binary binding to MAPRE1; conditions: 5 nM MAPRE1-NHS, interpolated; for EC50: no FKBP12, read-out: EC50 of the %Tbound, binary curve; for Kd: approximation, read-out: Spectral Shift Binary MAPRE1 KT,1
# Description: as §1, §2, §3, §4
# [8] = target: His-tagged FKBP12, labeled with RED-tris-NTA dye (UniProt P62942); assay: other fluorescence titration; spectral shift, no compound: 40 nM labeled FKBP12 vs. 10,000 nM MAPRE1
# Sequence of His-tagged FKBP12, labeled with RED-tris-NTA dye (P62942 whole entry): as the sequence (P62942 whole entry, one chain of several) above
# [9] = 40 nM FKBP12-NTA, 10 μM MAPRE1, read-out: EC50 of the %Cbound, ternary curve (measured)
# [10] = calculated with the model using α from MAPRE1 binding, read-out: calc EC50 of the %Cbound, ternary curve
Compound,EC50 [1] [µM],"Ratio [Ctot]/KC,1 [1]","100 × (EC50 %Tbound ternary − 0.5 [Ttot] − KT,2)/KT,2 [1] [%]",Intrinsic cooperativity α [1],Kd [1],TR-FRET Recruitment Assay (%Amax) [2] [%],"EC50 [3, 9] [µM]",EC50 (FKBP12 [4]) [µM],Kd (FKBP12 [4]) [µM],EC50 (FKBP12 [5]) [µM],Kd (MAPRE1 [6]) [µM],"EC50 [3, 10] [µM]",EC50 (MAPRE1 [7]) [µM],Kd (MAPRE1 [7]) [µM],"EC50 (FKBP12 [5]; listed as R,R-SLF-1d) [µM]",Kd [8] [µM]
"C=C1CCN2C(=O)COc3cccc(c3)C(CCc3ccc(OC)c(OC)c3)OC(=O)C3CCCCN3C(=O)C(=O)C(C)(C)COC(=O)C(C)(C)NC(=O)C2C1 (stereo not drawn) [R,--SLF-10]",0.377,93,1.2,5405,0.37 µM,135,0.04,0.128,0.108,–,–,–,–,–,–,–
"C=C1CCN2C(=O)COc3cccc(c3)C(CCc3ccc(OC)c(OC)c3)OC(=O)C3CCCCN3C(=O)C(=O)C(C)(C)COC(=O)C3(CC3)NC(=O)C2C1 (stereo not drawn) [R,--SLF-11]",0.18,41,2.6,"10,405",0.173 µM,350,0.066,0.254,0.234,–,–,–,–,–,–,–
"C=C1CCN2C(=O)COc3cccc(c3)C(CCc3ccc(OC)c(OC)c3)OC(=O)C3CCCCN3C(=O)C(=O)C(C)(C)COC(=O)C(C)NC(=O)C2C1 (stereo not drawn) [R,S-SLF-1a]",1.03,476,0.3,1951,1.02 µM,51,0.045,0.041,0.021,0.23,> 250,0.02,–,–,–,–
"C=C1CCN2C(=O)COc3cccc(c3)C(CCc3ccc(OC)c(OC)c3)OC(=O)C3CCCCN3C(=O)C(=O)C(C)(C)COC(=O)C(CC)NC(=O)C2C1 (stereo not drawn) [R,S-SLF-3]",0.827,152,0.8,2200,0.818 µM,93,0.049,0.086,0.066,–,–,0.025,> 200,> 200,–,–
"C=C1CCN2C(=O)COc3cccc(c3)C(CCc3ccc(OC)c(OC)c3)OC(=O)C3CCCCN3C(=O)C(=O)C(C)(C)COC(=O)C(CO)NC(=O)C2C1 (stereo not drawn) [R,S-SLF-6]",0.114,222,0,4484,~0.111 µM and 0.111 µM,255,0.024,0.065,0.045,–,–,0.021,> 200,> 200,–,–
"C=C1CCN2C(=O)COc3cccc(c3)C(CCc3ccc(OC)c(OC)c3)OC(=O)C3CCCCN3C(=O)C(=O)C(C)(C)COC(=O)C(C(F)(F)F)NC(=O)C2C1 (stereo not drawn) [R,S-SLF-8]",1.07,92,1.1,1509,1.06 µM,27,0.065,0.129,0.109,–,–,0.031,> 200,> 200,–,–
"C=C1CCN2C(=O)COc3cccc(c3)C(CCc3ccc(OC)c(OC)c3)OC(=O)C3CCCCN3C(=O)C(=O)C(C)(C)COC(=O)C(CCOC)NC(=O)C2C1 (stereo not drawn) [R,S-SLF-9]",–,–,–,–,–,51,–,–,–,–,–,–,–,–,–,–
"C=C1CCN2C(=O)COc3cccc(c3)C(CCc3ccc(OC)c(OC)c3)OC(=O)C3CCCCN3C(=O)C(=O)C(C)(C)COC(=O)C(C)NC(=O)C2C1 (stereo not drawn) [S,S-SLF-1d]",> 1400,1428 and 1429,–,No positive cooperativity,–,0,0.029,0.027,0.007,–,–,–,> 200,> 200,0.72,–
unlabeled MAPRE1 (from UniProt Q15691 1-268) (natural protein),–,–,–,–,–,–,–,–,–,–,–,–,–,–,–,> 100
